Source: article PMC9498296, “Inhibitory Activity of Quaternary Isoquinoline Alkaloids on Soluble Epoxide Hydrolase” (Current Issues in Molecular Biology, 2022)

Tests used:
[1] = target: T1, soluble epoxide hydrolase (sEH) (Homo sapiens, UniProt P34913); assay: sEH enzymatic assay (fluorometric, PHOME substrate); format: biochemical; details: 37 °C, pH 7.0, tested three times, read-out: Inhibition of Compounds on sEH IC50
T1 construct: purchased Cayman Chemical (Ann Arbor, MI, USA) 10011669
T1 sequence (P34913 1-555): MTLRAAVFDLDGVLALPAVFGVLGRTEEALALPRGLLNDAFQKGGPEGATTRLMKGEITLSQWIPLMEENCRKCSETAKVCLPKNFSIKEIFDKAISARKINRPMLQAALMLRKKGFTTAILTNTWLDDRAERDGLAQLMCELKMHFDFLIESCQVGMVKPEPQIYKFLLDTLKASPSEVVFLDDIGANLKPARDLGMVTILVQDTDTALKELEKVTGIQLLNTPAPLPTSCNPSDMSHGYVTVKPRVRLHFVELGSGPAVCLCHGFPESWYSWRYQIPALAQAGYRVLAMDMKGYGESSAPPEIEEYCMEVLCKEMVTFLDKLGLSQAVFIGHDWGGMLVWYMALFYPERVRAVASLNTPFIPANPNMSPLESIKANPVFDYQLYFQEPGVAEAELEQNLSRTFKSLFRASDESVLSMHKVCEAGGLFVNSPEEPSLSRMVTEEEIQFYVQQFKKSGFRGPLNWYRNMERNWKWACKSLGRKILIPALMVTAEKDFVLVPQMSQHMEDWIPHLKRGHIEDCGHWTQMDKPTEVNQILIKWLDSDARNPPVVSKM
Procedure: The sEH assay was performed as described previously, with minor modifications. To determine inhibitory activity, 130 μL of the sEH in 25 mM bis-Tris-HCl buffer (pH 7.0) containing 0.1% BSA was added to either 20 μL of inhibitor dissolved in MeOH. Next, 20 μL of PHOME was mixed to each mixture, which was then reacted at 37 °C for sEH hydrolysis. Product formation was monitored fluorometrically at 330 nm excitation and 465 nm emission for approximately 60 min.
sEH inhibition activity was calculated using sEH Inhibition rate (%) = [(ΔC − ΔI)/ΔC] × 100(1) where ΔC and ΔI are the difference of the solvent and compound intensities, respectively, after about one hour and y = y0 + (a × x/b + x)(2) where y0 is the minimum value along the y-axis, a is the difference between the maximum and minimum values, and b is the x value at 50 percent of the “a” value.

[2] = target: T1, soluble epoxide hydrolase (sEH); assay: Enzyme kinetics of sEH inhibition (Lineweaver–Burk and Dixon plots); format: biochemical; details: for Binding Mode: Lineweaver–Burk plots, PHOME substrate; for Ki: Table 1, Dixon plots, read-out: Binding Mode (ki, M): ki
Procedure: Additionally, an enzyme kinetic study was performed to identify how the three compounds bound to this enzyme. The initial velocity (v0) of inhibitor was determined as the rate of enzymatic conversion from substrate to product depending on the concentration of inhibitor at the start of the enzymatic reaction. The results were visualized using classic double-reciprocal Lineweaver–Burk plots. Figure 2B–D indicates one 1/Km and four 1/Vmax values for the three inhibitors, which inhibited the catalytic reaction of sEH with PHOME in a noncompetitive manner.

Row | SMILES | IC50 [1] | Binding Mode [2] | Ki [2]
1 | COc1cc2c(cc1OC)-c1cc3ccc(OC)c(OC)c3c[n+]1CC2 [Compound 1, palmatine] | 29.6 ± 0.5 µM | Non-competitive | 2.69e-05 M
2 | COc1ccc2cc3[n+](cc2c1OC)CCc1cc2c(cc1-3)OCO2 [Compound 2, berberine] | 33.4 ± 0.8 µM | Non-competitive | 4.68e-05 M
3 | COc1cc2c(cc1O)CC[n+]1cc3c(OC)c(OC)ccc3cc1-2 [Compound 3, jatrorrhizine] | 27.3 ± 0.4 µM | Non-competitive | 4.45e-05 M
